Experimental data published in article PMC7996082, “The translocator protein ligands as mitochondrial functional modulators for the potential anti-Alzheimer agents” (Journal of Enzyme Inhibition and Medicinal Chemistry, 2021).
Where two headings read alike, the source gives them in different places.

What was measured:
[1] = Pharmacokinetic study in SD male rats; assay type: in vivo, rat; conditions: 10 mg/kg; for AUC(0-t) / clearance / AUC(0-inf) / Vd / bioavailability / Cmax / Tmax / half-life: Sprague-Dawley, rat, plasma; for bioavailability: oral vs intravenous; for half-life: male
Description: Each test compound at a dose of 10 mg/kg was administered intravenously or orally to male Sprague-Dawley (SD) rats. Blood samples collected via carotid artery at several time points after administration of each compound were stored at −70 °C until LC-MS/MS analysis. To determine the plasma concentration of each compound, a 0.1 µg/mL of internal standard in 100 µL of MeCN was added to 50 µL of plasma samples. After vortex-shaking and centrifugation at 10,000 rpm for 10 min, 5 µL of the supernatant was analysed by LC-MS/MS [HP1100® HPLC system (Agilent, Santa Clara, CA) combined with API3200® triple-quadrupole mass spectrometer (Applied Biosystems-SCIEX, Concord, Canada)]. The HPLC chromatographic separation was performed on a reversed-phase Xterra® C18 column (Waters Corporation, Milford, MA) using gradient elution consisted of 0.1% formic acid and 0.1% formic acid in 90% MeCN at a flow rate of 0.3 ml/min.

[2] = test system: transgenic AD model mice (APPswe/PSEN1dE9); test: Contextual fear conditioning test in transgenic AD model mice; assay type: in vivo, mouse; conditions: Tg AD model mice, 30 mg/kg daily, 1 month, PO
Description: The acute AD mice model was prepared by administration of Aβ1-42 solution (10% DMSO/90% PBS) to male ICR mice (6 weeks old, 30 − 33 g) via intracerebroventricular (ICV) injection (Aβ1-42 dose: 500 pmol/mouse) as described previously. The wild type mice (B6C3F1) and double APP/PS1 transgenic mice (Tg AD mice model; APPswe/PSEN1dE9) were purchased from Jackson Laboratory (Bar Harbour, ME, USA). The Tg AD model mice were 11 months old at the beginning of the behaviour test, and were housed for 1 month in a room under controlled temperature and fed ad libitum. The behaviour tests were conducted during daytime in air-controlled and soundproof experiment room. The animal experiments were abided by the guidelines of the Institutional Animal Care and Use Committee of Korea Institute of Science and Technology.
To the Tg mice of the AD model (n = 7 per group), each test compound (30 mg/kg) was orally administrated daily for 1 month. […] Freezing response was measured by the fear conditioning system without application of CS or US.
In addition, we assessed recovery effects of compound 7 by performing contextual fear conditioning tests.[40] Healthy mice show higher number of total freezing, which is an index of fear learning and memory of rodents; therefore, the number of total freezing responses under fear-relevant stimuli was measured with the compound-treated Tg AD model mice. […]

[3] = test system: transgenic AD model mice (APPswe/PSEN1dE9); test: Y-maze spontaneous alternation test in transgenic AD model mice; assay type: in vivo, mouse; conditions: Tg APPswe/PSEN1dE9 mice, 30 mg/kg daily, 1 month, PO
[4] = test system: HT22 cells treated with Aβ; test: Cellular ROS assay (DCFDA): inhibition of Aβ-induced ROS generation; assay type: cell-based, mouse; conditions: Mus musculus, HT-22, 5 μM compound
Description: Among 56 compounds, 23 compounds were selected and further tested for the luciferase-based ATP assay. […] Thus, we chose these two compounds and further evaluated their biological activity by measuring cell viability and reactive oxygen species (ROS) production. The effects on cell viability of each compound under Aβ-induced cytotoxicity were determined by measuring the metabolic activity of NAD(P)H-dependent cellular oxidoreductases using the 3–(4,5-dimethylthiazol-2-yl)-2,5-diphenyl-tetrazolium bromide (MTT) dye. To measure cellular ROS levels, we used a fluorescence indicator, 2′,7′-dichlorofluorescein diacetate (DCFDA), and calculated the percent inhibition of ROS generation by applying the same method used for MTT assays. Compound 7 inhibited Aβ-induced ROS generation (97% at 5 µM) almost to the level of the untreated control (Table 1). […] On the basis of the in vitro activity, we selected compound 7 as the best hit from the initial screening library.

[5] = intravenous, n = 3, read-out: Vss
[6] = n = 3, read-out: F (bioavailability)
[7] = iv, intravenous, n = 3, read-out: Terminal half-life
[8] = po, oral, n = 3, read-out: Terminal half-life

SMILES | AUC(0-t) ([1]; intravenous, n = 3) [ng·h/mL] | clearance ([1]; intravenous, n = 3) [mL/min/kg] | AUC(0-inf) ([1]; intravenous, n = 3, mean ± SD) [ng·h/mL] | Vd [1, 5] [L/kg] | bioavailability [1, 6] [%] | AUC(0-t) ([1]; oral, n = 3) [ng·h/mL] | Cmax ([1]; oral, n = 3) [ng/mL] | AUC(0-inf) ([1]; oral, n = 3, mean ± SD) [ng·h/mL] | Tmax ([1]; oral, n = 3, range in brackets) [h] | half-life [1, 7] [h] | half-life [1, 8] [h] | other results
CCOc1ccc(-n2c(SCC(=O)NCc3ccccc3)nc3sc4c(c3c2=O)CCN(C(C)=O)C4)cc1 [Compound 31] | 4560 | 32.5 ± 10.1 | 5510 | 7.74 ± 1.11 | 8 | 194 | 40 ± 20 | 443 | 0.8 | 2.9 ± 0.54 | 7.47 ± 0.46 | –
CCOc1ccc(-n2c(SCC(=O)N3CCN(c4ccccc4)CC3)nc3sc4c(c3c2=O)CCN(C(C)=O)C4)cc1 [Compound 44] | 17600 | 9.43 ± 1.05 | 17800 | 0.785 ± 0.0396 | 78.4 | 8120 | 2110 ± 910 | 10200 | 1.2 | 1.33 | 3.32 ± 2.24 | Terminal half-life ([1]; intravenous, n = 3): 1.336 ± 0.156 h
CCOc1ccc(-n2c(SCC(=O)Nc3ccc(OC)c(OC)c3)nc3sc4c(c3c2=O)CCN(C(C)=O)C4)cc1 [Compound 7] | – | – | – | – | – | – | – | – | – | – | – | Contextual fear conditioning: percent recovery of freezing [2]: 62%; AUC(0-inf) ([1]; intravenous, n = 5, Table S3): 6030 ng·h/mL; AUC(0-t) ([1]; intravenous, n = 5, Table S3): 6000 ng·h/mL; clearance ([1]; intravenous, n = 5, Table S3): 28.9 ± 7.09 mL/min/kg; Vd ([1]; intravenous, n = 5, Table S3, read-out: Vss): 1.74 L/kg; bioavailability ([1]; n = 5, Table S3, read-out: F (bioavailability)): 37.3%; AUC(0-inf) ([1]; oral, n = 5, Table S3): 2250 ng·h/mL; AUC(0-t) ([1]; oral, n = 5, Table S3): 1930 ng·h/mL; Tmax ([1]; oral, n = 5, Table S3): 2.2 h; half-life ([1]; iv, intravenous, n = 5, Table S3, read-out: Terminal half-life): 1.04 ± 0.0785 h; half-life ([1]; po, oral, n = 5, Table S3, read-out: Terminal half-life): 2.35 ± 1.04 h; Recovery of Y-maze spontaneous alternations [3]: 50%; inhibition at 5 µM [4]: 97%
